Data: patent US12371454B2, “Cyclic peptide compound having Kras inhibitory action” (priority 2019, dated 2025)
Starred links: 1 amine or outer side, 2 acyl side, 3 side chain; linkers in the order of their positions; H or OH if unused. Positions of bridges follow the written chain, without caps; N, C: chain ends. Non-standard residues stand in square brackets, D forms with d. Residues, ends and D or L forms follow the SMILES beside them. *: point of attachment. hPhe(3-Cl-4-CF3) = N[C@@H](CCc1ccc(C(F)(F)F)c(Cl)c1)C(=O)O; NMeDab(N,N-(CH2CF2CH2)) = CN[C@@H](CCN1CC(F)(F)C1)C(=O)O; X23 = CN([C@@H](Cc1ccccc1OC(F)(F)F)C(=O)[*:2])[*:1]; NMePhe(4-Cl) = CN[C@@H](Cc1ccc(Cl)cc1)C(=O)O; hPhe(4-Cl) = N[C@@H](CCc1ccc(Cl)cc1)C(=O)O; NMedβ3hAla = C[C@H](CC(=O)[*:2])N(C)[*:1]; Abu(4,4,4-F3) = N[C@@H](CC(F)(F)F)C(=O)O; NMeGly(cPent) = CN[C@H](C(=O)O)C1CCCC1; Phe(3-I) = N[C@@H](Cc1cccc(I)c1)C(=O)O; Pro(4,4-F2) = O=C(O)[C@@H]1CC(F)(F)CN1; NMeCha = CN[C@@H](CC1CCCCC1)C(=O)O; N(CH2CH2)2CF2 = FC1(F)CCN(*)CC1; NMeD = CN[C@@H](CC(=O)O)C(=O)O; NMeL = CN[C@@H](CC(C)C)C(=O)O; NPrAla = CCCN[C@@H](C)C(=O)O; NMeV = CN[C@H](C(=O)O)C(C)C; d(β3hA) = C[C@@H](N)CC(=O)O; Morpholide = C1CN(*)CCO1; NMeA = CN[C@@H](C)C(=O)O; Nle = CCCC[C@H](N)C(=O)O; Piperidide = C1CCN(*)CC1; dNMeA = CN[C@H](C)C(=O)O; Ac5c = NC1(C(=O)O)CCCC1; Aze = O=C(O)[C@@H]1CCN1; NBuGly = CCCCNCC(=O)O; NPrGly = CCCNCC(=O)O; Sar = CNCC(=O)O

target: T1, Kras and SOS1 (biotin-tagged human Kras loaded with GDP, His-tagged human SOS1) (Homo sapiens, UniProt P01116, G12D); assay: Protein-protein interaction inhibition between Kras and SOS1 (KrasGl2D-SOS PPI) using AlphaScreen; format: binding; details: AlphaScreen; biotin-tagged human Kras loaded with GDP, His-tagged human SOS1; read-out: KRAS G12D-SOS PPI IC50
T1 construct: made in house; host or cells: E. coli (stated for Kras only)
Procedure: Protein-Protein Interaction Inhibition Between Kras and SOS1 (KrasGl2D-SOS PPI) Using AlphaScreen
Protein-protein interaction inhibition (PPI) between Kras and SOS1 was measured by energy transfer from nickel-conjugated donor beads to streptavidin-conjugated acceptor beads using biotin-tagged human Kras expressed in E. coli and loaded with GDP after purification and His-tagged human SOS1 enzyme. This measurement utilizes the phenomenon in which donor beads are irradiated with light at 680 nm, such that energy is transferred to acceptor beads through singlet oxygen and light at 520-620 nm is detected from the acceptor beads.
Inhibition of binding between K-ras and SOS1 is known to inhibit signaling downstream of Kras.

T1 sequence (P01116 1-188 isoform P01116-2 G12D): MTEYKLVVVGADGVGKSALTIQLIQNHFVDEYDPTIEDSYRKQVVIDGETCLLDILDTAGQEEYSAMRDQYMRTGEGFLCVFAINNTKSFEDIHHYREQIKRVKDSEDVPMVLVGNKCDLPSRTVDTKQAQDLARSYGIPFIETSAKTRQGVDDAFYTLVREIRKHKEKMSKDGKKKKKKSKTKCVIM

Compound | IC50 [nM]
CC[C@H](C)[C@@H]1NC(=O)[C@H](CC(C)C)N(C)C(=O)C[C@@H](C(=O)N(C)C)N(C)C(=O)[C@H](C2CCCC2)N(C)C(=O)[C@H](CC(F)(F)F)NC(=O)[C@H](CCN2CC(F)(F)C2)N(C)C(=O)[C@H](CCc2ccc(C(F)(F)F)c(Cl)c2)NC(=O)CN(C)C(=O)[C@H](CC2CCCCC2)N(C)C(=O)[C@@H]2CCN2C(=O)[C@H](C)N(C)C1=O [Compound 104] ([NMeL]I[NMeA][Aze][NMeCha][Sar][hPhe(3-Cl-4-CF3)][NMeDab(N,N-(CH2CF2CH2))][Abu(4,4,4-F3)][NMeGly(cPent)][NMeD]-NMe2; lactam N-11) | 28
CC[C@H](C)[C@@H]1NC(=O)[C@H](CC(C)C)N(C)C(=O)C[C@@H](C(=O)N2CCOCC2)N(C)C(=O)[C@H](C2CCCC2)N(C)C(=O)C2(CCCC2)NC(=O)[C@H](CC(=O)N2CCC(F)(F)CC2)N(C)C(=O)[C@H](CCc2ccc(C(F)(F)F)c(Cl)c2)NC(=O)CN(C)C(=O)[C@H](CC2CCCCC2)N(C)C(=O)[C@@H]2CCN2C(=O)[C@H](C)N(C)C1=O [Compound 105] ([NMeL]I[NMeA][Aze][NMeCha][Sar][hPhe(3-Cl-4-CF3)][NMeD](N(CH2CH2)2CF2)[Ac5c][NMeGly(cPent)][NMeD]-Morpholide; lactam N-11) | 5.3
CC[C@H](C)[C@@H]1NC(=O)[C@H](CC(C)C)N(C)C(=O)C[C@@H](C)N(C)C(=O)[C@H](C2CCCC2)N(C)C(=O)C2(CCCC2)NC(=O)[C@@H]2CC(F)(F)CN2C(=O)[C@H](CCc2ccc(C(F)(F)F)c(Cl)c2)NC(=O)CN(C)C(=O)[C@H](CC2CCCCC2)N(C)C(=O)CN(C)C(=O)CN(C)C1=O [Compound 107] (cyclo([Ac5c][NMeGly(cPent)][NMedβ3hAla][NMeL]I[Sar][Sar][NMeCha][Sar][hPhe(3-Cl-4-CF3)][Pro(4,4-F2)])) | 4
CC[C@H](C)[C@@H]1NC(=O)[C@H](C)N(C)C(=O)C[C@@H](C)NC(=O)[C@H](C2CCCC2)N(C)C(=O)C2(CCCC2)NC(=O)[C@@H]2CCCN2C(=O)[C@H](CCc2ccc(C(F)(F)F)c(Cl)c2)NC(=O)[C@@H](C)N(C)C(=O)[C@H](C(C)C)N(C)C(=O)CN(C)C(=O)CN(C)C1=O [Compound 109] (cyclo([Ac5c][NMeGly(cPent)][d(β3hA)][NMeA]I[Sar][Sar][NMeV][dNMeA][hPhe(3-Cl-4-CF3)]P)) | 40
CCCC[C@@H]1NC(=O)[C@H](Cc2cccc(I)c2)NC(=O)CN(C)C(=O)[C@H](Cc2ccc(Cl)cc2)N(C)C(=O)CN(C)C(=O)CN(C)C(=O)[C@H]([C@@H](C)CC)NC(=O)[C@H](CC(C)C)N(C)C(=O)C[C@@H](C(=O)N2CCCCC2)N(C)C(=O)[C@H](CC(C)C)NC(=O)[C@H](Cc2ccccc2OC(F)(F)F)N(C)C1=O [Compound 111] ([NMeL]I[Sar][Sar][NMePhe(4-Cl)][Sar][Phe(3-I)][Nle][X23]L[NMeD]-Piperidide; lactam N-11) | 100
CC[C@H](C)[C@@H]1NC(=O)[C@H](CC(C)C)N(C)C(=O)C[C@@H](C(=O)N2CCCCC2)N(C)C(=O)[C@H](C(C)C)N(C)C(=O)C2(CCCC2)NC(=O)[C@@H]2CCCN2C(=O)[C@H](CCc2ccc(Cl)cc2)NC(=O)CN(C)C(=O)[C@H](CC2CCCCC2)N(C)C(=O)CN(C)C(=O)[C@@H]2CCN2C1=O [Compound 112] ([NMeL]I[Aze][Sar][NMeCha][Sar][hPhe(4-Cl)]P[Ac5c][NMeV][NMeD]-Piperidide; lactam N-11) | 73
CCCN1C(=O)C[C@@H](C)NC(=O)[C@H](C(C)C)N(C)C(=O)C2(CCCC2)NC(=O)[C@@H]2CCCN2C(=O)[C@H](CCc2ccc(C(F)(F)F)c(Cl)c2)NC(=O)CN(C)C(=O)[C@H](CC2CCCCC2)N(C)C(=O)CN(C)C(=O)CN(C)C(=O)[C@H]([C@@H](C)CC)NC(=O)[C@@H]1C [Compound 114] (cyclo([Ac5c][NMeV][d(β3hA)][NPrAla]I[Sar][Sar][NMeCha][Sar][hPhe(3-Cl-4-CF3)]P)) | 20
CCCN1CC(=O)N(C)CC(=O)N(C)[C@@H](CC2CCCCC2)C(=O)N(C)CC(=O)N[C@@H](CCc2ccc(C(F)(F)F)c(Cl)c2)C(=O)N2CCC[C@H]2C(=O)NC2(CCCC2)C(=O)N(C)[C@@H](C(C)C)C(=O)N[C@H](C)CC(=O)N(C)[C@@H](CC(C)C)C(=O)N[C@@H]([C@@H](C)CC)C1=O [Compound 116] (cyclo([Ac5c][NMeV][d(β3hA)][NMeL]I[NPrGly][Sar][NMeCha][Sar][hPhe(3-Cl-4-CF3)]P)) | 140
CCCCN1CC(=O)N(C)CC(=O)N(C)[C@@H](CC2CCCCC2)C(=O)N(C)CC(=O)N[C@@H](CCc2ccc(C(F)(F)F)c(Cl)c2)C(=O)N2CCC[C@H]2C(=O)NC2(CCCC2)C(=O)N(C)[C@@H](C(C)C)C(=O)N[C@H](C)CC(=O)N(C)[C@@H](CC(C)C)C(=O)N[C@@H]([C@@H](C)CC)C1=O [Compound 123] (cyclo([Ac5c][NMeV][d(β3hA)][NMeL]I[NBuGly][Sar][NMeCha][Sar][hPhe(3-Cl-4-CF3)]P)) | 170
